Test results as given in patent publication US10167299B2, “1-(3-aminopropyl) substituted cyclic amine compounds, preparation method therefor, and pharmaceutical compositions and uses thereof” (SHANGHAI INSTITUTE OF MATERIA MEDICA, CHINESE ACADEMY OF …, priority 2013, dated 2019).
pIC50: −log10 of the molar value. Converted amounts (≈) assume the structure as drawn. Like-named read-outs stand apart in the source and are kept apart here.

Assays:
[1] = tested on: HIV-1SF162 virus strain; assay: Inhibition activity on TZM-bl cells infected with HIV-1SF162
[2] = tested on: CCR5 protein; assay: Thermal stability of protein test (CPM-assay); type: binding; conditions: for Tm (° C.): thermal stability of CCR5 protein with compound, CPM dye
From the text: Experimental theory: many cysteines are present in CCR5 protein sequence. Cysteines located in loop region form disulfide bonds to stabilize the tertiary structure of the protein. Some free cysteines in reduced state are located in the transmembrane region. Under excitation by incident light of 387 nm, the combination of free sulfhydryl and fluorescent dye CPM can emit excitation light of 436 nm. […] The free sulfhydryls originally located in the transmembrane region expose and combine with the fluorescent dye. And then the detector will detect changes in signal enhancement. Therefore, the thermal stability of membrane proteins can be determined according to the temperature (Tm) at the midpoint of changes in signal intensity.
Experimental steps: Upon preliminary purification, the obtained protein solution was transferred into a small concentration tube (100 kd, 500 ul) for concentration (1000 rcf, 12 min, 4° C.). After centrifugation, the concentration tube was taken out and flicked to prevent protein coagulation due to high local concentration. The final concentrated volume was about 50 μl. 117 μl of purified solution (volume is suitable to make the total volume up to 120 μl), 1 μl fluorescent dye cpm (in-house prepared) and 2 μl of concentrated protein solution (the amount of added protein is 3-5 μg according to the calculated concentration of the protein solution and the concentrated volume) were added to 2 ml Ependorf tube and incubated at room temperature for 20 min. And then the mixture was added to the cuvette (Qwan) and put in the testing equipment Cary, wherein the surface of the frosted glass faced out. The temperature was set in the range of 4-90° C. with 1° C. increase per minute and the program was run. Tm value can be obtained by processing the data and graph with a mapping software and can be used to compare the difference of protein thermal stability under different conditions.

[3] = biological target: hERG (Homo sapiens (Human), UniProt Q12809)
Chain of hERG (Q12809 whole entry): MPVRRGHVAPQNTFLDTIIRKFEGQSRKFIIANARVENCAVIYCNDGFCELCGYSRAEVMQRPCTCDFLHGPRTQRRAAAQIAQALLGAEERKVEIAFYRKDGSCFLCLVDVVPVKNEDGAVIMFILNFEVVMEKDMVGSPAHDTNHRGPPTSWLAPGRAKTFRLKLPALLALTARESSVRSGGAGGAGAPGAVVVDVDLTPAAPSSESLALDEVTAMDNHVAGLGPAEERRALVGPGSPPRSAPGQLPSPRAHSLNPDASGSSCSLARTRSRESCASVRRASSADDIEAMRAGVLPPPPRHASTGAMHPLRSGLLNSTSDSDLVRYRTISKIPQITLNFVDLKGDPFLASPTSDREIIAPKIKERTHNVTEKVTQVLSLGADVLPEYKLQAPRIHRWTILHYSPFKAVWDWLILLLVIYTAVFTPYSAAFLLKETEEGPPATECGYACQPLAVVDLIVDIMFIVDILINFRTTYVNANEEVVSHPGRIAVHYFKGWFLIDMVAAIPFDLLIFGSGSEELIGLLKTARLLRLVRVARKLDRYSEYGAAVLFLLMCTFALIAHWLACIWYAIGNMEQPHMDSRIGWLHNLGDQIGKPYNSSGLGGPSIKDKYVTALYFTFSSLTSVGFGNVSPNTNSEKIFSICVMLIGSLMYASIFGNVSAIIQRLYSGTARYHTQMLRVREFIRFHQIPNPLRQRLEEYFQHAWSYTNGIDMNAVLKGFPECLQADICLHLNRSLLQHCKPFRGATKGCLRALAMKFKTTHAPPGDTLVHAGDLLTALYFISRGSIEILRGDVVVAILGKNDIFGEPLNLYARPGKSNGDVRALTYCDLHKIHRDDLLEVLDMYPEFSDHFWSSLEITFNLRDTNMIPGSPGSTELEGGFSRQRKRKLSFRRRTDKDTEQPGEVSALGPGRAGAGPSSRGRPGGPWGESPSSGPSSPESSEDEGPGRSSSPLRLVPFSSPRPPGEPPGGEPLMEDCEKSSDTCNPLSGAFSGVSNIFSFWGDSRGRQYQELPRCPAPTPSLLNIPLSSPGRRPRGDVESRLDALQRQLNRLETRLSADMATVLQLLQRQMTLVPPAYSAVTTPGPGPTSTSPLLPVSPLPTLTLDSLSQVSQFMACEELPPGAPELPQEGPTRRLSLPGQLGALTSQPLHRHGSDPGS
Protocol: CHO-hERG cells which have been incubated overnight were added with sample buffer and incubated for 90 minutes at room temperature in darkness.
The sample buffer was removed and assay buffer was added.
The compound is added to the cell plate and incubated for 20 minutes in darkness.
Cell plate was placed into FDSS. The fluorescence signal was recorded every second for 10 seconds. Exciting buffer was added to the cells at the 10th second and the fluorescence signal was recorded every second for 180 seconds

[4] = Cytotoxicity (CC50) in TZM-bl cells; type: cell-based; conditions: human
[5] = biological target: CCR5 (Homo sapiens (Human), UniProt P51681); assay: Calcium flux inhibition experiment; type: cell-based; conditions: for pIC50: HEK293/CCR5-Gα16 cell line, calcium flux, read-out: CCR5 IC50; for calcium influx inhibition effect in words, versus positive control compounds: conclusion from Table 1
Chain of CCR5 (P51681 whole entry): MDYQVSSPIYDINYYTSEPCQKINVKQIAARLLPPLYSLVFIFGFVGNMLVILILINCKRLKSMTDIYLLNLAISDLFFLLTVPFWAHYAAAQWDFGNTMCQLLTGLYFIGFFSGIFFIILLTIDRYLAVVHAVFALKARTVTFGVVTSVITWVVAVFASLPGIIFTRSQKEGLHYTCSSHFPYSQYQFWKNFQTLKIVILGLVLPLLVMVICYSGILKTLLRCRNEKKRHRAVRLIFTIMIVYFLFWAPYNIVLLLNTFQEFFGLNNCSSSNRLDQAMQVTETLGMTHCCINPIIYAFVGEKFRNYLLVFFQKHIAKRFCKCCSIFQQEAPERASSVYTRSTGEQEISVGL

[6] = tested on: HIV-1Ba-L virus strain; assay: Inhibition of viral replication in PBMC infected with HIV-1Ba-L; type: cell-based
Protocol: (§1) The virus was titrated according to the modified method of Johnson & Byington. Briefly, the HIV-1 stock solution was subject to four-fold dilution in a 96-well plate (ten gradients) sextuplicate for each gradient, while setting six control-wells. Into each well was added 100 μl (5×10^6/ml) PHA-stimulated PBMC cells and final volume per well was 200 μl. The cells were cultured at 37° C. with 5% CO2. On the third day, 100 μl of fresh RPMI-1640 complete medium was supplemented. On the seventh day, the infected supernatant was collected and lysed with 0.5% Triton X100. The p24 antigen was detected by ELISA and TCID50 of virus was calculated according to Reed & Muench method (50% Tissue culture infection dose).
(§2) The compound to be tested was subject to 5-fold dilution in 48-well plate with RPMI-1640 complete medium (containing 10% FBS). The starting concentration was 1 μM, six dilutions were obtained, and each well contained 200 μl mixture. While wells not containing drugs were set as control. Virus (MOI=0.01) was added to 5×10^6/ml of PBMC cells which have been stimulated by PHA for 72 h. After homogeneously mixed, the mixture was immediately added to 48-well plate containing diluted drug and each well was added with 200 μl of mixture. MVC was used as positive control. The cells were cultured at 37° C. with 5% CO2 for seven days (drug with the same concentration was added on the third day). The supernatant was collected, lysed and inactivated with 0.5% Triton X-100. The inhibition effect of drug on HIV-1 replication was detected using p24 antigen capture ELISA method.

[7] = tested on: HIV-1SF162 virus strain; assay: Inhibition of viral replication in HOS-CD4-CCR5 cells infected with HIV-1SF162; type: cell-based; conditions: Human immunodeficiency virus 1, HOS-CD4-CCR5
Protocol: (§3) On the day before the test, 1×10^5/ml of HOS-CD4-CCR5 cells were inoculated in 96-well plates with 100 μl for each well. The compound to be tested was subject to 5-fold dilution in 96-well microtiter plate with DMEM complete medium (containing 10% FBS). The starting concentration was 1 μM and six dilutions were obtained. Triplicate wells were set for each dilution and each well contained 100 μl mixture. While wells not containing drugs were set as control. The supernatant was removed and 100 μl of drug was added and incubated for 2 h. Then 100 μl of HIV-1SF162 and HIV-1Ba-L were added to dilute supernatant. The cells were infected for 1 h, free virus was washed out and drug with the same final concentration was added. MVC was used as positive control. The cells were cultured at 37° C. with 5% CO2 for three days. The supernatant was collected, lysed and inactivated with 0.5% Triton X-100. The inhibition effect of drug on HIV-1 replication was detected using p24 antigen capture ELISA method.

[8] = Toxicity test of compounds on PBMC cells (MTT); type: cell-based; conditions: human; PBMC cells (Table 4)
Protocol: (§4) The compound to be tested was subject to 5-fold dilution in a 96-well microtiter plate with RPMI-1640 or DMEM complete medium (containing 10% FBS) (Six dilution) triplicate for each dilution and 100 μl for each well. While wells not containing drugs were set as control. Into each well was added 100 μl of 4×10^5/ml PM1, HOS-CD4-CCR5 cells or 100 μl of 5×10^6/ml PHA stimulated PBMC. The cells were cultured at 37° C. with 5% CO2 for three days (PBMC cells were cultured for seven days and 100 μl of fresh RPMI-1640 complete medium was supplemented on the third day). Cytotoxicity was tested with MTT assay. OD values were measured by ELx800 microplate reader. The detection wavelength was 570 nm, and the reference wavelength was 630 nm.

[9] = tested on: HIV-1KM018 virus strain; assay: Inhibition of viral replication in PBMC infected with HIV-1KM018; type: cell-based; conditions: Human immunodeficiency virus 1, PBMC
Protocol: as §1, with “On the third day, 100 μl of fresh RPMI-1640 complete medium was supplemented.” left out
as §2, with “The” for “The compound to be tested was subject to 5-fold dilution in 48-well plate with RPMI-1640 complete medium (containing 10% FBS). The”, “Virus (MOI=0.01) was added to 5×10^6/ml of PBMC cells which have been stimulated by PHA for 72 h.” left out

[10] = tested on: HIV-1Ba-L virus strain; assay: Inhibition of viral replication in HOS-CD4-CCR5 cells infected with HIV-1Ba-L; type: cell-based
Protocol: as §3

[11] = tested on: HIV-1SF162 virus strain; assay: Inhibition of viral replication in PBMC infected with HIV-1SF162; type: cell-based
Protocol: as §1, with “On the third day, 100 μl of fresh RPMI-1640 complete medium was supplemented.” left out
as §2, with “The” for “The compound to be tested was subject to 5-fold dilution in 48-well plate with RPMI-1640 complete medium (containing 10% FBS). The”, “Virus (MOI=0.01) was added to 5×10^6/ml of PBMC cells which have been stimulated by PHA for 72 h.” left out

[12] = Toxicity test of compounds on HOS-CD4-CCR5 cells (MTT); type: cell-based; conditions: human; HOS-CD4+-CCR5 cells (Table 7)
Protocol: as §4

[13] = tested on: TZM-bl cells; assay: Cytotoxicity (CC50) in TZM-bl cells; type: cell-based; conditions: TZM-bl cells (Table 3)
[14] = biological target: CYP2D6 (Homo sapiens (Human), UniProt P10635); assay: CYP450 inhibition activity assay (Vivid kit) CYP2D6; type: in vitro ADME; conditions: CYP450 subtype (μM) 2D6 (IC50)
Chain of CYP2D6 (P10635 whole entry): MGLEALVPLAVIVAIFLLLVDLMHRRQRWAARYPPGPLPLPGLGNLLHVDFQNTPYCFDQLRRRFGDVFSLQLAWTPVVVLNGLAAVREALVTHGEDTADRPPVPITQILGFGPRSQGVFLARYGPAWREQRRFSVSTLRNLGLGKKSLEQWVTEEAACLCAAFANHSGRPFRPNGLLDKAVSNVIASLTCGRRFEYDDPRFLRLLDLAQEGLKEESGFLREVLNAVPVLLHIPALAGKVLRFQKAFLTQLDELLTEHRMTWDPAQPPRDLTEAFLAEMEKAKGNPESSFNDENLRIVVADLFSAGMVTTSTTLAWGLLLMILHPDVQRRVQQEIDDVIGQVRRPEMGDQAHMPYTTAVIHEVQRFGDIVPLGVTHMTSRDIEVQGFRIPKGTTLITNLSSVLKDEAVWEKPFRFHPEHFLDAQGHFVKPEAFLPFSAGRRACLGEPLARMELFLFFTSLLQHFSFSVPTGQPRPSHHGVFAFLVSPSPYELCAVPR
Protocol: (§5) VividR CYP450 Screening Kits can be used to evaluate the effects on CYP450 subtypes (CYP1A2, CYP2D6, CYP2C9, CYP2C19, CYP3A4-T and CYP3A4-M) and the substrate VividR in the kit can be metabolizd to a product which can emit strong fluorescence in an aqueous solution by specific CYP450 enzymes.
(§6) The compounds to be tested and positive compound were added to corresponding wells and DMSO was added to control wells.
(§7) CYP450 enzyme was added to the compounds to be tested, positive compound and DMSO control wells. The enzyme dilution was used to replace enzyme and added to DMSO wells as test background. The mixture was vibrated and mixed for 1 minute, and then incubated at room temperature for 20 minutes.
(§8) NADP^+ regeneration system and the substrate were added to initiate the reaction and incubated at room temperature for 60 minutes.

[15] = biological target: CYP2C19 (Homo sapiens (Human), UniProt P33261); assay: CYP450 inhibition activity assay (Vivid kit) CYP2C19; type: in vitro ADME; conditions: CYP450 subtype (μM) 2C19 (IC50)
Chain of CYP2C19 (P33261 whole entry): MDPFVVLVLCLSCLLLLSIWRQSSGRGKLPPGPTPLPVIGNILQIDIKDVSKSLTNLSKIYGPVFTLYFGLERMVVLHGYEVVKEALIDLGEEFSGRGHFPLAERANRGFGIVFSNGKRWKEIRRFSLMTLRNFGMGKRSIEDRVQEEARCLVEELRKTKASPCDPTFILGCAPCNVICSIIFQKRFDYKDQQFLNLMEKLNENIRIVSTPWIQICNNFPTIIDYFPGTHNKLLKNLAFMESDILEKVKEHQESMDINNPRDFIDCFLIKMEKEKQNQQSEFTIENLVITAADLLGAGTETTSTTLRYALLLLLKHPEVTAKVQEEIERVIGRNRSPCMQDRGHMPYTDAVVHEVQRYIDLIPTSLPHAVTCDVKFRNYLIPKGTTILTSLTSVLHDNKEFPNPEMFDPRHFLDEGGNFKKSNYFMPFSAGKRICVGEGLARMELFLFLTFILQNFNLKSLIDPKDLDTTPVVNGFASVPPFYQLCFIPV
Protocol: as §5, §6, §7, §8

[16] = biological target: CYP1A2 (Homo sapiens (Human), UniProt P05177); assay: CYP450 inhibition activity assay (Vivid kit) CYP1A2; type: in vitro ADME; conditions: CYP450 subtype (μM) 1A2 (IC50)
Chain of CYP1A2 (P05177 whole entry): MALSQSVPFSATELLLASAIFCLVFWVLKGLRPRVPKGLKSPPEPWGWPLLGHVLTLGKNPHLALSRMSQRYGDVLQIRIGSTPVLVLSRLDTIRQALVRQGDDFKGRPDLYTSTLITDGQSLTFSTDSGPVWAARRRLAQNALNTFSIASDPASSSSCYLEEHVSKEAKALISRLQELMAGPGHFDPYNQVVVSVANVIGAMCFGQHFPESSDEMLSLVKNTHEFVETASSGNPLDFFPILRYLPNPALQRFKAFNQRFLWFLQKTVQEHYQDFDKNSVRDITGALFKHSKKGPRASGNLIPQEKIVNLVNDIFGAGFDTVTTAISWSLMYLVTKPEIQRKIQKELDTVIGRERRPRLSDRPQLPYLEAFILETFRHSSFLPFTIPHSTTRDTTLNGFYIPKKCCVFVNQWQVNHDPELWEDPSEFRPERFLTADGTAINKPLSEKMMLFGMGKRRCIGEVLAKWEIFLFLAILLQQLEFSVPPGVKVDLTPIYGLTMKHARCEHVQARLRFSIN
Protocol: as §5, §6, §7, §8

[17] = biological target: CYP2C9 (Homo sapiens (Human), UniProt P11712); assay: CYP450 inhibition activity assay (Vivid kit) CYP2C9; type: in vitro ADME; conditions: CYP450 subtype (μM) 2C9 (IC50)
Chain of CYP2C9 (P11712 whole entry): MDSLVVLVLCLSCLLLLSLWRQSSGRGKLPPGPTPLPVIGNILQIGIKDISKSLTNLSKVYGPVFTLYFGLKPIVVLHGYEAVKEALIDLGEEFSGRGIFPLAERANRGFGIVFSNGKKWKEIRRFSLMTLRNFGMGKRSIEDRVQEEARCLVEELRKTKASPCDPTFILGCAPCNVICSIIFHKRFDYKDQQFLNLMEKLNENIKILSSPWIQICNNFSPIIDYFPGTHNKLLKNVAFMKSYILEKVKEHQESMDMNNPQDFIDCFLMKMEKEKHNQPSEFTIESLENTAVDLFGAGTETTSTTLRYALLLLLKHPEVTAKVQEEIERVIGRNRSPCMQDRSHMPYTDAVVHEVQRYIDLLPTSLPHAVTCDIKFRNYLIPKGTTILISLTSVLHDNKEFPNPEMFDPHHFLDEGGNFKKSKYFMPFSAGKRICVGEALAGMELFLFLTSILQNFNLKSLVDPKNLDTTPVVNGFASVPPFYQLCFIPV
Protocol: as §5, §6, §7, §8

[18] = marketed drug, literature value, species not stated; cited from earlier work
[19] = Human immunodeficiency virus 1, TZM-bl
[20] = TZM-bl cells infected with HIV-1SF162
[21] = Human immunodeficiency virus 1, PBMC
[22] = TZM-bl cells (Table 3), read-out: CC50

Row | Molecule | EC50 [1, 19] | therapeutic index (TI) [1, 20] | Tm (° C.) [2] | hERG inhibition activity in words, versus positive control compounds [3] | pIC50 [5] | EC50 [1, 20] | CC50 [13] | other results
1 | Cc1nnc(C(C)C)n1C1CC2CCC(C1)N2CC[C@H](NC(=O)C1CCCCC1)c1cccnc1 (stereo partly drawn) [Compound 8, N-[(1S)-3-[exo-3-(3-isopropyl-5-methyl-4H-1,2,4-triazol-4-yl)-8-azabicyclo[3.2.1]octane-8-yl]-1-(pyridin-3-yl)propyl]cyclohexane-1-carboxamide] | 2.69 µg/mL (≈ 5.62 µM) | >37.17 | 60.61 °C | better that those of positive control compounds | 7.66 |  |  | CC50 [4]: > 100 µg/mL
2 | Cc1nnc(C(C)C)n1C1CC2CCC(C1)N2CCC(NC(=O)C1CCC(F)(F)CC1)c1cccs1 (stereo not drawn) [Compound 3, 4,4-difluoro-N-[3-[exo-3-(3-isopropyl-5-methyl-4H-1,2,4-triazol-4-yl)-8-azabicyclo[3.2.1]octane-8-yl]-1-(thiophen-2-yl)propyl]cyclohexane-1-carboxamide] | 0.0024 µg/mL (≈ 0.00462 µM) | >41666.67 |  |  |  |  |  | cytotoxicity in vitro and therapeutic index in words, versus positive control compound ([1]; TZM-bl cells infected with HIV-1SF162, conclusion from Table 3): better than positive control compound; EC50 [6, 21]: 0.0912 µg/mL (≈ 0.176 µM); therapeutic index (TI) ([6]; PBMC cells infected with HIV-1Ba-L): 3328.9; EC50 [7]: 0.0244 µg/mL (≈ 0.047 µM); CC50 at 7 days [8]: 273 µg/mL (≈ 526 µM); EC50 [9]: 0.0157 µg/mL (≈ 0.0301 µM); therapeutic index (TI) ([10]; HOS-CD4+-CCR5 cells infected with HIV-1Ba-L): 19495; EC50 ([10]; Human immunodeficiency virus 1, HOS-CD4-CCR5): 0.0171 µg/mL (≈ 0.033 µM); CC50 at 3 days [4, 22]: > 100 µg/mL; EC50 [11, 21]: 0.146 µg/mL (≈ 0.281 µM); therapeutic index (TI) ([11]; PBMC cells infected with HIV-1SF162): 1874; CC50 at 3 days [12]: 334 µg/mL (≈ 643 µM)
3 | 4,4-difluoro-N-[(1S)-3-[exo-3-(3-isopropyl-5-methyl-4H-1,2,4-triazol-4-yl)-8-azabicyclo[3.2.1]octane-8-yl]-1-(pyridin-3-yl)propyl]cyclohexane-1-carboxamide [Compound 6] |  | 66.23 | 58.56 °C |  | 8.16 | 1.51 µg/mL | >100 µg/mL | calcium influx inhibition effect in words, versus positive control compounds [5]: better than the positive control compounds
4 | Cc1nnc(C(C)C)n1[C@@H]1C[C@H]2CC[C@@H](C1)N2CC[C@H](NC(=O)C1CCC(F)(F)CC1)c1ccccc1 [Maraviroc, reference compound] | 0.00814 µg/mL (≈ 0.0158 µM) |  | 72.17 °C |  |  |  |  | IC50 [14]: > 25 µM; IC50 [15]: > 25 µM; IC50 [16]: > 25 µM; CC50 [4, 22]: > 200 µg/mL; IC50 [17]: 14.4 µM; bioavailability as reported [18]: 5%
5 | Cc1nnc(C(C)C)n1[C@@H]1C[C@H]2CC[C@@H](C1)N2CC[C@H](NC(=O)C1CCC(F)(F)CC1)c1cccc(F)n1 [Compound 34, 4,4-difluoro-N-[(1S)-3-[exo-3-(3-isopropyl-5-methyl-4H-1,2,4-triazol-4-yl)-8-azabicyclo[3.2.1]octane-8-yl]-1-(6-fluoropyridin-2-yl)propyl]cyclohexane-1-carboxamide] |  |  |  |  | 6.84 | >40 µg/mL | >200 µg/mL | 
6 | CC(=O)N[C@@H](CCN1C2CCC1CC(n1c(C)nnc1C(C)C)C2)c1cccs1 (stereo partly drawn) [Compound 12, N-[(1S)-3-[exo-3-(3-isopropyl-5-methyl-4H-1,2,4-triazol-4-yl)-8-azabicyclo[3.2.1]octane-8-yl]-1-(thiophen-2-yl)propyl]acetamide] |  |  |  | better that those of positive control compounds |  |  |  | 
7 | 4-ethyl-N-[(1S)-3-[exo-3-(3-isopropyl-5-methyl-4H-1,2,4-triazol-4-yl)-8-azabicyclo[3.2.1]octane-8-yl]-1-(thiophen-3-yl)propyl]cyclopentane-1-carboxamide [Compound 20] |  | 14308.01 | 70.27 °C | better that those of positive control compounds | 8.29 | 0.00487 µg/mL | 69.68 µg/mL | protein stability effect in words, versus positive control compound ([2]; conclusion from Table 2): comparable with the positive control compound; pIC50 [3]: 4.84; calcium influx inhibition effect in words, versus positive control compounds [5]: better than the positive control compounds
